Results as given in ChEMBL document CHEMBL5331115, “Design, Synthesis, and Pharmacological Characterization of a Potent Soluble Epoxide Hydrolase Inhibitor for the Treatment of Acute Pancreatitis” (J Med Chem, 2023).
Calls of active or inactive are those of the source. The rule behind the calls is not given here.

How the values were obtained:
[1] = test system: Mus musculus; assay: Antiinflammatory activity in cerulein-induced CD-1 mouse assessed as reduction in pancreatic injury at 10 mg/kg, ip administered on 0.5 and 2.5 hrs post first cerulein administration measured after 6 hrs by Hematoxylin and eosin staining based analysis; assay type: functional, organism-based
[2] = test system: Mus musculus; assay: Antiinflammatory activity in cerulein-induced CD-1 mouse assessed as reduction in lung inflammation at 10 mg/kg, ip administered on 0.5 and 2.5 hrs post first cerulein administration measured after 6 hrs by Hematoxylin and eosin staining based analysis; assay type: functional, organism-based
[3] = test system: Mus musculus; assay: Antiinflammatory activity in cerulein-induced CD-1 mouse assessed as reduction of neutrophil numbers at 10 mg/kg, ip administered on 0.5 and 2.5 hrs post first cerulein administration measured after 6 hrs by Hematoxylin and eosin staining based analysis; assay type: functional, organism-based
[4] = test system: Mus musculus; assay: Antiinflammatory activity in cerulein-induced CD-1 mouse assessed as reduction of edema at 10 mg/kg, ip administered on 0.5 and 2.5 hrs post first cerulein administration measured after 6 hrs by Hematoxylin and eosin staining based analysis; assay type: functional, organism-based
[5] = test system: Mus musculus; assay: Antiinflammatory activity in cerulein-induced CD-1 mouse assessed as reduction in serum ALT at 10 mg/kg, ip administered on 0.5 and 2.5 hrs post first cerulein administration measured after 6 hrs by Hematoxylin and eosin staining based analysis; assay type: functional, organism-based
[6] = test system: Mus musculus; assay: Antiinflammatory activity in cerulein-induced CD-1 mouse assessed as reduction in lung neutrophilia at 10 mg/kg, ip administered on 0.5 and 2.5 hrs post first cerulein administration measured after 6 hrs by Hematoxylin and eosin staining based analysis; assay type: functional, organism-based
[7] = test system: Mus musculus; assay: Antiinflammatory activity in cerulein-induced CD-1 mouse assessed as reduction in serum AST at 10 mg/kg, ip administered on 0.5 and 2.5 hrs post first cerulein administration measured after 6 hrs by Hematoxylin and eosin staining based analysis; assay type: functional, organism-based
[8] = test system: Mus musculus; assay: Antiinflammatory activity in cerulein-induced CD-1 mouse assessed as reduction of cell infiltration at 10 mg/kg, ip administered on 0.5 and 2.5 hrs post first cerulein administration measured after 6 hrs by Hematoxylin and eosin staining based analysis; assay type: functional, organism-based
[9] = biological target: T1, Prostaglandin G/H synthase 2 (Mus musculus, UniProt Q05769); assay: Inhibition of COX-2 in LPS-stimulated mouse J774 cells assessed as inhibition of PGE2 production pretreated for 2 hrs followed by stimulation with LPS measured after 24 hrs by ELISA analysis; assay type: cell-based
T1 sequence (Q05769 whole entry): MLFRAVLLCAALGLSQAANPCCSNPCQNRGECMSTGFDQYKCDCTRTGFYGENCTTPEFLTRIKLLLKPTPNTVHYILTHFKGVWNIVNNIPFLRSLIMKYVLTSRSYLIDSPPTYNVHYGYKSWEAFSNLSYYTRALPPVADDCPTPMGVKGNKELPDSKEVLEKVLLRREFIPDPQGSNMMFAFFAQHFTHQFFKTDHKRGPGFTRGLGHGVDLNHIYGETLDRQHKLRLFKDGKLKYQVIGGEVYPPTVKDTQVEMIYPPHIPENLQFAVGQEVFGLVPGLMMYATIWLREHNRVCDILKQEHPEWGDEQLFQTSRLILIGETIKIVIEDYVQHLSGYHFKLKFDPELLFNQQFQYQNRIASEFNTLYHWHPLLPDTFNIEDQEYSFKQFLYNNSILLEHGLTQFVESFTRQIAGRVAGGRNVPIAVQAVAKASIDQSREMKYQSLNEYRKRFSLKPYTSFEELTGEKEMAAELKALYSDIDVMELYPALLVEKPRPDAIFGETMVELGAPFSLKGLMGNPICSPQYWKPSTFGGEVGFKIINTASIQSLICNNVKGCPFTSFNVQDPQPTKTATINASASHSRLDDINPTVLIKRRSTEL

Structure (SMILES) | Activity [1] | Activity [2] | Activity [3] | Activity [4] | Activity [5] | Activity [6] | Activity [7] | Activity [8] | IC50 [9]
O=C(O)CCCCCCCCCCCNC(=O)NC12CC3CC(CC(C3)C1)C2 | Active |  |  |  |  |  |  |  | 
CC(C)c1ccc(Cn2ccc3cc(NC(=O)NCC45C[C@H]6C[C@@H](C4)C[C@@H](C5)C6)ccc32)cc1 |  | Active | Active | Active | Active | Active | Active | Active | > 10 µM
